Reference: patent US9138659B2, “Compositions, methods, and systems relating to controlled crystallization and/or nucleation of molecular species” (Massachusetts Institute of Technology, priority 2010, dated 2015)
In brackets after ≈: the same amount, converted by molar mass.

What was measured:
Assay type in all cases: physicochemical
[1] = Nucleation induction time of aspirin on crosslinked polymer plates (non-porous and porous); settings: for average induction time τ from linear fit ln(P)=−t/τ: bulk polymerization
Procedure: To further quantify the surface chemistry effect on nucleation kinetics, nucleation induction time distribution was measured with the API of interest. Nucleation induction time is an indicator of the surface nucleation activity because it can be shortened when the presence of a surface lowers the free energy barrier of nucleation. Due to the stochastic nature of nucleation events, a significant number of experiments were performed to obtain the probability distribution of nucleation induction time.
As an example of induction time measurements, polymer plates were prepared by UV polymerizing the mixture of a monomer and the crosslinker divinylbenzene held by Teflon holders. Subsequent drying under vacuum removed unreacted monomer molecules. Monomers used to synthesize polymer plates were 4-Acryloylmorpholine (AM), 4-Hydroxybutyl acrylate (HBA), 2-Carboxyethyl acrylate (CEA), and styrene (STY). AM, HBA, and CEA served as positive controls, whilst STY a negative control. Each polymer plate was inserted together with the Teflon holder vertically into the aspirin solution, and then the solution was quenched to initiate nucleation. The starting concentration and the nucleation temperature were chosen such that the supersaturation produced was high enough to give reasonably short induction time but low enough to suppress bulk nucleation. 48 vials of each polymer sample were tested simultaneously and the fraction of vials crystallized was recorded as a function of time to produce a plot of cumulative probability distribution of induction time, as shown in FIG. 4.
In FIG. 4: Cumulative probability distribution of nucleation induction time (a) and statistical analysis on the same data sets (b) obtained with polymers synthesized via bulk polymerization. Crystallization of aspirin was performed at supersaturation S=4.75. The linear regression in […] follows the formula ln(P)=−t/τ to obtain the average induction time τ. P is the probability for no crystallization event to occur within time t. […] The results of linear fitting are i) STY ln(P)=−t/243.9, R^2=0.987; ii) CEA ln(P)=−t/113.6, R^2=0.978; iii) HBA ln(P)=−t/38.2, R^2=0.995.
For example, by the PIPS method, the mixture of a monomer and the crosslinker divinylbenzene dissolved in ethanol was subjected to UV irradiation to initiate the polymerization. As the molecular weight of the polymer increases to a critical point, dynamic asymmetry between solvent molecules and the polymer lead to nucleation and growth of solvent-rich regions within the polymer matrix. Subsequent evaporation of the solvent during the vacuum drying leaves pores on the polymer films. One common feature shared by most porous surfaces is a raised edge surrounding the pore region, which may be a sign of eruptional behavior caused by fast solvent evaporation under vacuum. As determined by AFM, the pores found on polymer sample AM were around 100 nm in width and 4 nm in depth. Comparatively, polymer sample HBA carried pores about 50 nm in width and 5-8 nm in depth. The non-porous AM and HBA samples were synthesized by bulk polymerization method and used as a control and had relatively smooth surfaces despite a few impurities.

[2] = Solubility of ASA and ACM
[3] = Equilibrium partitioning of ASA / ACM into PEGDA and PEGDA-co-AM gels
Procedure: This theory is exemplified by quantifying the partitioning of aspirin between the PEGDA gel phase and 38/62 ethanol/water (v/v), and determining the concentration of aspirin in the hydrogel particles. The partitioning experiments were performed at the same solution concentration and temperature as in the nucleation induction time experiments. In the partitioning experiment, both the concentrations of aspirin and ethanol were measured, as there are three species in the bulk solution, namely aspirin, ethanol and water, all of which partition in the gel phase to a certain degree determined by their relative interaction with the PEGDA polymer matrix.
Composition of aspirin solution in the PEGDA gel phase were compared with the bulk phase. PEGDA gels sufficiently large for convenient handling were synthesized by UV polymerization, following the same formulation as the synthesis of PEGDA particles used in the crystallization study. The PEGDA gels were washed with ethanol and vacuum dried to remove unreacted species. The gel was then immersed in excessive 38 mg/ml aspirin solution in 38/62 ethanol/water (v/v) and allowed sufficient time to reach equilibrium swelling at 15° C. before taken out, pad dried, and put in excessive water. After 5 hours immersed in water, the concentrations of aspirin and ethanol in the aqueous phase were analyzed by UV-Vis spectroscopy and Gas Chromatography, respectively.
In FIG. 10: Partitioning of aspirin vs. acetaminophen in the PEGDA gel. Y axis represents the relative API concentration in the PEGDA, normalized by the bulk concentration. The aspirin partitioning experiment was conducted in 38 mg/ml aspirin solution in 38/62 ethanol/water (v/v) at 15° C. As for acetaminophen, 95 mg/ml acetaminophen solution in 38/62 ethanol/water (v/v) was used and the equilibration temperature was 8° C. In both cases, the experimental conditions were kept the same as used in the nucleation induction time study.
Quantification of polymer-solute interactions: The strength of intermolecular interactions between the PEGDA-co-AM polymer network and the molecule to crystallize was characterized with the solute equilibrium partition coefficient at the same condition as used in the crystallization study. Solute partition coefficient κ, defined as the ratio of solute mass fraction in solution confined in the gel to that in the bulk, is a relevant parameter because it informs the solute concentration in the gel at the crystallization condition, which is an important factor affecting nucleation. […] The PEGDA polymers are comprised of the PEG subchain and the acrylate crosslinkers.
Partition coefficient measurements: Partition coefficients of ASA in PEGDA-co-AM gels from its bulk solution were determined as follows. In brief, a series of gels with varying mesh sizes of approximately 5 mm in diameter and 0.5 mm in thickness were synthesized via UV polymerization following the same formula as used in the microgel synthesis. The residue solvent, porogen and monomer molecules were removed by extensive washing with solvent ethanol and subsequent vacuum drying. The dry gels were then immersed in excessive volume of 38 mg/ml ASA solution in 38/62 (v/v) ethanol/water at 15° C. for overnight.

CC(=O)Oc1ccccc1C(=O)O [aspirin]
average induction time τ from linear fit ln(P)=−t/τ ([1]; CEA polymer, S=4.75, FIG. 4, in h): 113.6
average induction time τ from linear fit ln(P)=−t/τ ([1]; HBA polymer, S=4.75, FIG. 4): 38.2 h
average induction time τ from linear fit ln(P)=−t/τ ([1]; STY polymer, S=4.75, FIG. 4, in h): 243.9
Average induction time τ ([1]; non-porous AM polymer, S = 4.75): 38.2 h
Average induction time τ ([1]; non-porous HBA polymer, S = 4.75): 243.9 h
Average induction time τ ([1]; porous AM polymer, S = 4.2): 8.8 h
Average induction time τ ([1]; porous HBA polymer, S = 4.2): 54.6 h
solubility ([2]; aqueous with cosolvent or surfactant or cyclodextrin, 38/62 (v/v) ethanol/water mixture at 25° C): 32 mg/mL (≈ 178 mM)
solubility in water ([2]; water at 3° C): essentially insoluble
increase of κ after introducing AM into the PEGDA gel ([3]; ASA, on average): 60%
molar ratio of ethylene oxide units in PEG to ASA ([3]; PEGDA gels, all mesh sizes, calculated from the partition experiments): 7.7
AM to ASA molar ratio ([3]; PEGDA-co-AM gels): around unity
ASA concentration in the PEGDA-co-AM gels relative to bulk solution ([3]; PEGDA-co-AM gels): as high as six times
aspirin concentration in PEGDA particles with respect to the bulk ([3]; all PEGDA particles, 38 mg/ml in 38/62 ethanol/water, 15° C): more than three times
